According to US4777290A, “10,10-dihydro-10-[(substituted-carbonyl)imino]-10-phe nyl-10H-phenoxaphosphines” (American Cyanamid Company, priority 1987, dated 1988):
Where “and” joins values, the source holds several entries; their conditions need not be identical. Equal values may be shown once. Where a name gives a salt, the structure may show the parent alone.

Assays:
[1] = test system: Spontaneously Hypertensive Rats; assay: Diuretic activity in spontaneously hypertensive rats; assay type: in vivo, male spontaneously hypertensive rats of Okamoto strain; conditions: 0-5 hour urine
Method: The diuretic activity of the compounds of this invention was determined according to the method of Chan, P. S. and Poorvin, D., Sequential method for combined screening antihypertensive and diuretic agents in the same spontaneously hypertensive rat. Clinical and Experimental Hypertension, 1 (6), 817-830 (1979).
Male spontaneously hypertensive rats of Okamoto strain, 16 weeks old, Taconic Farms Inc., were used in the test. These rats were kept on Purina laboratory chow and tap water ad libitum for 8 weeks before use. The male adult rats (about 300 g) were dosed by gavage with a test compound at 100 mg/kg at zero hour with the exception of one male adult rat in which the test compound dosage was 50 mg/kg. The test compound was suspended in 3% preboiled starch at 50 mg/ml. Each rat was put in metabolism cage. The 0-5 hour urine was collected and urinary sodium and potassium were determined using a Beckman Astra 4.

plasma renin activity = assay: Inhibition of evoked increase of plasma renin activity (PRA) in conscious rats; assay type: in vivo, male Wistar rats; conditions: oral, 30 min before provocative treatment, Wistar rats
Method: Inhibition of evoked increase of plasma renin activity was determined by the following test.
Compounds were tested for their ability to prevent drug-induced elevation of plasma renin activity (PRA) in concious, male Wistar rats (180-200 g, Charles River Lab.). PRA elevation was induced by a combined oral provocative treatment (C) of hydrochlorothiazide (10 mg/kg) and 1-(3-benzoyl-3-mercapto-2-methylpropionyl-L-proline, acetate (U.S. Pat. No. 4,226,775) (1 mg/kg), prepared by compounding in a mortar and pestle with preboiled 3% starch suspension. This treatment provided the daily maximum PRA. The daily minimum PRA was obtained from rats given oral starch suspension (S) alone. The magnitude of drug effect on PRA elevation was ascertained from rats pretreated orally with test agent (D), at the indicated doses, 30 minutes prior to administration of provocative treatment (C). The test agent was also compounded in preboiled 3% starch suspension. The dose volumes for both pretreatment and provocative treatment were 2 ml/kg. One hour after provocative treatment the rats were sacrificed by decapitation and the first 3 seconds of blood collected in two chilled vacutainer tubes containing 40 μl of 150 mg/ml tripotassium EDTA. The plasmas, which were obtained by centrifugation for 20 minutes at 4° C. and 3000×G, were incubated (one of each pair at 37° C., the other at 4° C.) at pH 6.8 in 50 mM phosphate buffer to produce angiotensin I. The incubates contained peptidase inhibitors to prevent angiotensin I degradation and the incubation buffer contained 1 mg/ml lysozyme (Sigma Grade III) used as an antiabsorbant. The incubates were diluted 20 fold in cold 100 mM tris buffer (pH adjusted to 7.4 with glacial acetic acid) also containing 1 mg/ml lysozyme, and then frozen. Diluted incubates were assayed within 3 days for angiotensin I content by radioimmunoassay according to a modification of the method of Haber, et al., J. Clin. Endocrin., 29, 1349-1355 (1969).
PRA is calculated as follows:
PRA([…])=PRA 37° C.-PRA 4° C.
Percent inhibition of PRA elevation is calculated as follows: [formula]

Stability in solution = assay type: physicochemical
[2] = 100 mg/kg by gavage, hydrobromide
[3] = 100 mg/kg by gavage, hydrochloride

Row | SMILES | Potassium (urinary) ([1]; 100 mg/kg by gavage) | Sodium (urinary) ([1]; 100 mg/kg by gavage) | Volume (urine) ([1]; 100 mg/kg by gavage) | further results
1 | CCOC(=O)N=P1(c2ccccc2)c2ccccc2Oc2ccccc21 [10,10-Dihydro-10-[(ethoxycarbonyl)imino]-10-phenyl-10H-phenoxaphosphine] | 0.49 MEQ/5 Hours | 2.20 MEQ/5 Hours | 19.0 mL | Percent Inhibition of Plasma Renin Elevation, Av. % Inhibition (plasma renin activity; 1 mg/kg): 33%; Percent Inhibition of Plasma Renin Elevation, Av. % Inhibition (plasma renin activity; 2 mg/kg): 54%; Percent Inhibition of Plasma Renin Elevation, Av. % Inhibition (plasma renin activity; 4 mg/kg): 78%; Percent Inhibition of Plasma Renin Elevation, Av. % Inhibition (plasma renin activity; 8 mg/kg): 91%; Percent Inhibition of Plasma Renin Elevation, Av. % Inhibition (plasma renin activity; 25 mg/kg): 84%
2 | COC(=O)N=P1(c2ccccc2)c2ccccc2Oc2ccccc21 [10,10-Dihydro-10-[(methoxycarbonyl)imino]-10-phenyl-10H-phenoxaphosphine] | 0.74 MEQ/5 Hours | 1.48 MEQ/5 Hours | 14.0 mL | –
3 | CC(C)OC(=O)N=P1(c2ccccc2)c2ccccc2Oc2ccccc21 [10,10-Dihydro-10-[[(1-methylethoxy)carbonyl]imino]-10-phenyl-10H-phenoxaphosphine] | 0.66 MEQ/5 Hours | 2.30 MEQ/5 Hours | 16.5 mL | –
4 | CC(C)COC(=O)N=P1(c2ccccc2)c2ccccc2Oc2ccccc21 [10,10-Dihydro-10-[[(2-methylpropoxy)carbonyl]-imino]-10-phenyl-10H-phenoxaphosphine] | 0.64 MEQ/5 Hours | 1.63 MEQ/5 Hours | 12.8 mL | –
5 | N=P1(c2ccccc2)c2ccccc2Oc2ccccc21 [10,10-Dihydro-10-imino-10-phenyl-10H-phenoxaphosphine, bis(t] [10,10-Dihydro-10-imino-10-phenyl-10H-phenoxaphosphine, bis(trifluoroacetate)] | 0.66 MEQ/5 Hours | 1.16 MEQ/5 Hours | 12.5 mL | –
6 | N=P1(c2ccccc2)c2ccccc2Oc2ccccc21 [10,10-Dihydro-10-imino-10-phenyl-10H-phenoxaphosphine, hydrobromide] | – | – | – | Potassium (urinary) [1, 2]: 0.26 MEQ/5 Hours; Sodium (urinary) [1, 2]: 1.12 MEQ/5 Hours; Volume (urine) [1, 2]: 8.0 mL
7 | N=P1(c2ccccc2)c2ccccc2Oc2ccccc21 [10,10-Dihydro-10-imino-10-phenyl-10H-phenoxaphosphine, hydrochloride] | – | – | – | Potassium (urinary) [1, 3]: 0.59 MEQ/5 Hours; Sodium (urinary) [1, 3]: 2.01 MEQ/5 Hours; Volume (urine) [1, 3]: 16.5 mL
8 | N=P1(c2ccccc2)c2ccccc2Oc2ccccc21 [10,10-Dihydro-10-imino-10-phenyl-10H-phenoxaphosphine, sulfa] [10,10-Dihydro-10-imino-10-phenyl-10H-phenoxaphosphine, sulfate] | 0.18 MEQ/5 Hours | 1.56 MEQ/5 Hours | 9.8 mL | stability in solution (Stability in solution): stable in solution; Percent Inhibition of Plasma Renin Elevation, Av. % Inhibition (plasma renin activity; 1 mg/kg): 38%; Percent Inhibition of Plasma Renin Elevation, Av. % Inhibition (plasma renin activity; 4 mg/kg): 31% and 42%; Percent Inhibition of Plasma Renin Elevation, Av. % Inhibition (plasma renin activity; 8 mg/kg): 67%
9 | C=CCOC(=O)N=P1(c2ccccc2)c2ccccc2Oc2ccccc21 [10,10-Dihydro-10-phenyl-10-[[(2-propenyloxy)carbonyl]imino]-10H-phenoxaphosphine] | 0.61 MEQ/5 Hours | 1.27 MEQ/5 Hours | 12.0 mL | –
10 | C#CCOC(=O)N=P1(c2ccccc2)c2ccccc2Oc2ccccc21 [10,10-Dihydro-10-phenyl-10-[[(2-propynyloxy)carbonyl]imino]-10H-phenoxaphosphine] | 0.61 MEQ/5 Hours | 1.13 MEQ/5 Hours | 10.5 mL | –
11 | O=C(N=P1(c2ccccc2)c2ccccc2Oc2ccccc21)OCc1ccccn1 [10,10-Dihydro-10-phenyl-10-[[(2-pyridylmethoxy)carbonyl]imino]-10H-phenoxaphosphine] | – | – | – | Potassium (urinary) ([1]; 50 mg/kg by gavage): 0.74 MEQ/5 Hours; Sodium (urinary) ([1]; 50 mg/kg by gavage): 1.26 MEQ/5 Hours; Volume (urine) ([1]; 50 mg/kg by gavage): 10.8 mL
12 | O=C(N=P1(c2ccccc2)c2ccccc2Oc2ccccc21)OCc1cccnc1 [10,10-Dihydro-10-phenyl-10-[[(3-pyridylmethoxy)carbonyl]imino]-10H-phenoxaphosphine] | 0.59 MEQ/5 Hours | 2.61 MEQ/5 Hours | 20.5 mL | –
13 | O=C(N=P1(c2ccccc2)c2ccccc2Oc2ccccc21)OCc1ccccc1 [10,10-Dihydro-10-phenyl-10-[[(phenylmethoxy)carbonyl]imino]-10H-phenoxaphosphine] | 0.56 MEQ/5 Hours | 1.32 MEQ/5 Hours | 12.3 mL | –
14 | O=C(N=P1(c2ccccc2)c2ccccc2Oc2ccccc21)OC1CCOC1 (stereo not drawn) [10,10-Dihydro-10-phenyl-10-[[[(tetrahydro-3-furanyl)-oxy]carbonyl]imino]-10H-phenoxaphosphine] | 0.73 MEQ/5 Hours | 1.49 MEQ/5 Hours | 14.3 mL | –
15 | O=C(N=P1(c2ccccc2)c2ccccc2Oc2ccccc21)OCc1ccncc1 [10,10-dihydro-10-phenyl-10-[[(4-pyridylmethoxy)carbonyl]imino]-10H-phenoxaphosphine] | 0.40 MEQ/5 Hours | 2.28 MEQ/5 Hours | 18.0 mL | –
16 | O=C(N=P1(c2ccccc2)c2ccccc2Oc2ccccc21)OC1CCCC1 [10-[[(Cyclopentyloxy)carbonyl]imino]-10,10-dihydro-10-phenyl-10H-phenoxaphosphine] | 0.60 MEQ/5 Hours | 1.71 MEQ/5 Hours | 14.0 mL | –
17 | O=C(N=P1(c2ccccc2)c2ccccc2Oc2ccccc21)OCC1CC1 [10-[[(Cyclopropylmethoxy)carbonyl]imino]-10,10-dihydro-10-phenyl-10H-phenoxaphosphine] | 0.75 MEQ/5 Hours | 1.41 MEQ/5 Hours | 10.8 mL | –
